Experimental data published in patent US20230346948A1, “Lipid conjugated peptide inhibitors of PICK1” (University of Copenhagen, priority 2020, published 2023).
“And” between values parts separate entries of the source, which are not always exact repeats. Identical values can stand only once. Like-named read-outs stand apart in the source and are kept apart here.

What was measured:
[1] = tested on: diabetic neuropathy (STZ model); settings: for maximum reversal of mechanical response threshold: 2 h post-administration
Method: Diabetic neuropathy (STZ) model. Diabetes is induced by a single IP injection of […]. Streptozocin solution (100 μl/10 g, Sigma-aldrich S0130, batch #WXBB7152V). Glycemia is tested before, and 7 days after injection.
The mechanical threshold response of the operated mice was measured with calibrated von Frey filaments (“up/down” method) and the 50% threshold (g) was calculated. The experimenter was blinded to mice treatment. […] Compounds were diluted in PBS (vehicle) and administered s.c. at 10 μL/g, in doses as indicated (gabapentine, 5MPK). Statistical analysis was performed using GraphPad Prism 6.0.

[2] = tested on: spontaneous inflammatory pain (CFA model); test: Single exposure place preference (sePP), spontaneous pain; type: in vivo, mice
Method: Inflammatory pain (CFA model): Animals were habituated to the experimental room for a minimum of 60 min before initiation of the experiment. Mechanical pain threshold of both hind paws was determined by von Frey measurements. Injury was induced on the right hind paw, whereas the contralateral left hind paw was used as internal control of the animal. […] In the current experiment filaments in ascending order were applied to the frontocentral plantar surface of the hind paws. […] Each von Frey filament was applied five times with adequate resting periods between each application and number of withdrawals recorded. The withdrawal threshold was determined as the von Frey filament eliciting at least 3 positive trials out of the 5 applications in two consecutive filaments. A positive trial was defined as sudden paw withdrawal, flinching and/or paw licking induced by the filament. The inflammatory pain was induced by injection of 50 μL undiluted Complete Freund's Adjuvant (CFA) ([…], Sigma) unilaterally into the intraplantar surface of the right hind paw. All intraplantar injections were performed with an insulin needle (0.3 mL BD Micro-Fine), while the animal was under isoflurane anesthesia (2%) for maximum 60 seconds. […] Statistical analysis: was performed using GraphPad Prism 6.0. Student's t-test. Significance level set to p<0.05. […] All mice from a cage were tested at the same time, but not all given the same treatment. On exposure days, mice were weighed and injected s.c. with peptide (30 μmol/kg) or vehicle (10 μL/g) and immediately placed into the designated compartment for 60 min. The test group was exposed to peptide in the least preferred compartment, and vehicle (PBS) in the preferred compartment, whereas the control group was injected with vehicle in both compartments. […] Time spent in the different compartments was measured by Ethovision (Noldus, Wageningen, Netherlands). An additional experiment was run on animals without injury, showing no mPD5-dependent preference change

[3] = Solubility by visual inspection in PBS; type: physicochemical
[4] = Chemical stability in PBS for 30 days, HPLC-UV-MS; type: physicochemical
Method: Stability was addressed by […] for four concentration 2, 20, 50 and 200 μM, by leaving […] in PBS at 5 and […] for 30 days followed by HPLC-UV-MS method

[5] = Small angle X-ray scattering, self-assembly in solution; type: physicochemical
Method: Concentration series of […] ranging from 0.18 mg/ml to 9.37 mg/mL was prepared in buffer containing 50 mM Tris (pH 7.4), 125 mM NaCl. Samples were measured at the P12 SAXS Beamline, […], Hamburg, Germany. Preliminary data reduction including radial averaging and conversion of the data into absolute scaled scattering intensity, I(q), as a function of the scattering vector q, where q=4π sin(θ)/λ ([…]=half scattering angle) were done using the standard procedures at the beamline. The modelling of the SAXS data was performed in two ways, firstly using the pair distance distribution function and subsequently using a molecular constrained core-shell model for polydisperse spheres. In brief, it was assumed that the peptide aggregated into polydisperse spherical micelles. Here, the hydrophobic tails form the core and these are surrounded by the hydrophilic part (the shell) in a spherical micelle. […] This was calculated by counting the number of electrons in the molecular structure and multiplying by the scattering length of the electron. For the scattering length density calculations, it was assumed that the molecular volume of the C13 alkyl chain was 377 Å3 as estimated from Tanfords empirical formula (V=27.4+26.9nC) where nC denote the number of carbons. i.e. 13 in this case. The hydrophilic headgroup was as a first estimate assumed to have a mass density corresponding to that of a soluble protein (i.e. 1.35 g/cm^3), this yielded a molecular volume of 2078 Å3. […] Excess scattering length densities were then calculated in relation to water (9.4e101/cm^2). Using this molecular restrained model, the volumes of the core and of the shell were coupled internally through the fitted aggregation number, Nagg. The polydispersity was described by a Gauss function of Nagg. The Gauss was truncated at ±3sigma. The model module “[…]” from the […] software was used for the fitting. As usual a small surface roughness and a small constant background was also necessary for the model to converge. Scattering data was merged; buffer subtracted and binned using WillItRebin with a binning factor of 1.02. The pair distance distribution functions (pddf) were fitted using bayesapp (http://www.bayesapp.org/) in the interval [0.0122-0.4] Å^-1, fitting parameters are reported in the data collection table below.

[6] = pair distance distribution function analysis

CCCCCCCCCCCCCC(=O)N(CCOCCOCCC(=O)N[C@@H](Cc1c[nH]cn1)C(=O)N[C@@H](Cc1c[nH]c2ccccc12)C(=O)N[C@@H](CC(C)C)C(=O)N[C@@H](CCCCN)C(=O)N[C@H](C(=O)O)C(C)C)CCOCCOCCC(=O)N[C@@H](Cc1c[nH]cn1)C(=O)N[C@@H](Cc1c[nH]c2ccccc12)C(=O)N[C@@H](CC(C)C)C(=O)N[C@@H](CCCCN)C(=O)N[C@H](C(=O)O)C(C)C [myr-NPEG4-(HWLKV)2]
analgesic effect ([1]; s.c. 2 μmol/kg): weaker effect
maximum reversal of mechanical response threshold ([1]; s.c. 2 μmol/kg): 49.2±7.9 % of baseline
analgesic effect ([1]; s.c. 10 μmol/kg): strong and long-lasting effect up to 4 h
maximum reversal of mechanical response threshold ([1]; s.c. 10 μmol/kg): 67.3±4.5 % of baseline
place preference, time in drug-paired compartment vs vehicle-treated controls ([2]; CFA-injured mice, s.c. 30 μmol/kg, single exposure): spent significantly more time in the myr-NPEG4-(HWLKV)2-paired compartment
place preference ([2]; mice without injury (Naïve), s.c. 30 μmol/kg, single exposure): no change in preference
abuse liability ([2]; mouse, in vivo): lack of abuse liability
solubility [3]: ≥ 130000 µM and 250000 µg/mL
Measured Conc. mPD5 ([4]; 30 days @5° C, nominal 2 μM): 0.5 µM
Measured Conc. mPD5 ([4]; 30 days @5° C, nominal 20 μM): 17 µM
Measured Conc. mPD5 ([4]; 30 days @5° C, nominal 50 μM): 49 µM
Measured Conc. mPD5 ([4]; 30 days @5° C, nominal 200 μM): 194 µM
Measured Conc. mPD5 ([4]; 30 days @25° C, nominal 2 μM): 0.4 µM
Measured Conc. mPD5 ([4]; 30 days @25° C, nominal 20 μM): 17 µM
Measured Conc. mPD5 ([4]; 30 days @25° C, nominal 50 μM): 48 µM
Measured Conc. mPD5 ([4]; 30 days @25° C, nominal 200 μM): 203 µM
chemically stable for ([4]; +5° C. and +25° C. in the vehicle compositions): at least 30 days
degradation ([4]; PBS, 30 days, +5° C. and +25° C.): No degradation was observed
purity after storage ([4]; samples with 200 and 50 μM, 30 days in PBS): > 98%
n myr-NPEG4-(HWLKV)2, core shell model ([5]; 300 μM): 19
n myr-NPEG4-(HWLKV)2, core shell model ([5]; 400 μM): 22
n myr-NPEG4-(HWLKV)2, core shell model ([5]; 1000 μM): 22
n myr-NPEG4-(HWLKV)2, core shell model ([5]; 3000 μM): 21
n myr-NPEG4-(HWLKV)2, core shell model ([5]; 5000 μM): 19
number of individual molecules per micelle ([5]; core-shell model): 19-22
outer radius of spherical core-shell micelle ([5]; core-shell model): 20-24 Å
number of individual molecules per assembly [5, 6]: 5-8
radius of gyration (Rg) of micellar structures [5, 6]: 20-23.6 Å
